Legend:
Format in all cases: biochemical
[1] = target: T1, IGF1R kinase (Homo sapiens, UniProt P08069); assay: IGF1R ADP-Glo kinase assay, dose-response; details: for IC50: ADP-Glo, 8-point curves from 100 μM, 50 μM ATP; for selectivity for IGF1R versus InsR: from IC50 values of Table 1
T1 construct: This assay utilizes a recombinant intracellular kinase domain fragment of IGF1R; purchased Promega Corp
Experimental: (§1) Multi-well liquid dispensing for setting up assays was performed using either the robotic liquid handler PlateMate Plus or the manual electronic multichannel micropipettes Matrix Impact (Thermo Scientific, Hudson, NH, USA). High-throughput Screening (HTS), kinase selectivity, and dose-response (IC50) assays were read in the luminescence mode using the PolarStar Omega reader (BMG Labtech, Ortenberg, Germany) or M5 reader (Molecular Devices Corp., Sunnyvale, CA). IGF1R ADP-Glo data in relative luminescence units (RLU) were collected from the plate readers, and the percentage of activity (% Activity) was determined for each point as follows: % Activity = 100*(RLU sample – RLU no kinase control avg)/(RLU kinase control avg – RLU no kinase control avg). The screening data were processed and visualized using Microsoft Excel templates designed to calculate the inhibition values, the Z’-factor, and GraphPad Prism 5 (GraphPad Software, Inc., La Jolla, CA) for IC50 analysis. The doseresponse curves of Percent Activity were fit in Prism, using a sigmoidal variable slope fit with the maximum % activity and the minimum % activity fixed at 100% and 0%, respectively. The Z′ factor, a statistical measure of variability and reproducibility for HTS assays, was determined using the following formula: Z′ = 1-[3 × (SDsample+SDcontol)/|Msample-Mcontrol|] [12], where SD denotes the standard deviation and M denotes the mean for the samples and controls, respectively. Prior to starting HTS, assay conditions were optimized and validated with regard to the maximum ATP turnover (never exceeding 20%), an acceptable signal-to-background ratio (“assay window”) of at least 6, an acceptable Z’-factor of at least 0.6, as well as day-to-day and plate-to-plate reproducibility of the screening data. All primary screening was performed at 20 μM compound concentrations, and some of the weak hits were subsequently re-tested at higher concentrations (40 or 80 μM) for confirmation. Statistically significant HTS hits in the primary screening were defined as those that produced a kinase activity signal at least three standard deviations lower than the mean of the assay plate run (not including the plate controls). Lineweaver- Burk plots were created in Excel or Prism using the standard algorithms. All assay development and validation and high-throughput screening procedures were carried out according to the general guidelines as published on the U.S. National Chemical Genomics Center web site (NC GC Assay Guidance Manual and High-throughput Assay Guidance Criteria, http://www.ncbi.nlm.nih.gov/books/NBK53196/).
IGF1R high throughput screening (HTS) assays using the IGF1R Kinase System and ADP-Glo readout system (Promega Corp.) were performed in a final volume of 7 μL per test compound using a 384-well small volume microplate format. All liquid dispensing was done using the PlateMate Plus robotic liquid handler. 3 μL aliquots of the enzyme/substrate mixture containing 1 μg of the IGF1Rtide peptide substrate and 4 ng of recombinant IGF1R kinase in a 0.66× assay buffer were transferred to the plate wells. The assay buffer (1×) consisted of 40 mM Tris chloride, 20 mM magnesium chloride, 0,1 mg/ml bovine serum albumin, 2 mM manganese chloride, and 250 μM dithiothreitol (DTT ). To add the tested compounds to the reaction, starting stocks of 10 mM compounds in dimethyl sulfoxide (DMSO) were diluted with DMSO to 2 mM. Next, 3 μL aliquots of 2 mM compound stock solutions in DMSO were transferred to 83 μL volumes of a 1× reaction buffer and thoroughly mixed. Aqueous compound solution aliquots of 2 μL were then transferred into the assay plate to get a final concentration of each compound of 20 μM in 1% DMSO. The plates were pre-incubated at 27°C for 10 min with gentle shaking (300 rpm). The assay was started by adding 2 μL of the ATP stock solution to the reaction mixture to achieve a final ATP concentration of 50 μM. […]

[2] = target: T2, InsR kinase (Homo sapiens, UniProt P06213); assay: InsR ADP-Glo kinase assay, dose-response; details: for IC50: ADP-Glo, 8-point curves from 100 μM; for stronger inhibition of InsR versus IGF1R: from IC50 values of Table 1
T2 construct: the amount of recombinant insulin receptor kinase was 2 ng per well
T2 sequence (P06213 28-1382): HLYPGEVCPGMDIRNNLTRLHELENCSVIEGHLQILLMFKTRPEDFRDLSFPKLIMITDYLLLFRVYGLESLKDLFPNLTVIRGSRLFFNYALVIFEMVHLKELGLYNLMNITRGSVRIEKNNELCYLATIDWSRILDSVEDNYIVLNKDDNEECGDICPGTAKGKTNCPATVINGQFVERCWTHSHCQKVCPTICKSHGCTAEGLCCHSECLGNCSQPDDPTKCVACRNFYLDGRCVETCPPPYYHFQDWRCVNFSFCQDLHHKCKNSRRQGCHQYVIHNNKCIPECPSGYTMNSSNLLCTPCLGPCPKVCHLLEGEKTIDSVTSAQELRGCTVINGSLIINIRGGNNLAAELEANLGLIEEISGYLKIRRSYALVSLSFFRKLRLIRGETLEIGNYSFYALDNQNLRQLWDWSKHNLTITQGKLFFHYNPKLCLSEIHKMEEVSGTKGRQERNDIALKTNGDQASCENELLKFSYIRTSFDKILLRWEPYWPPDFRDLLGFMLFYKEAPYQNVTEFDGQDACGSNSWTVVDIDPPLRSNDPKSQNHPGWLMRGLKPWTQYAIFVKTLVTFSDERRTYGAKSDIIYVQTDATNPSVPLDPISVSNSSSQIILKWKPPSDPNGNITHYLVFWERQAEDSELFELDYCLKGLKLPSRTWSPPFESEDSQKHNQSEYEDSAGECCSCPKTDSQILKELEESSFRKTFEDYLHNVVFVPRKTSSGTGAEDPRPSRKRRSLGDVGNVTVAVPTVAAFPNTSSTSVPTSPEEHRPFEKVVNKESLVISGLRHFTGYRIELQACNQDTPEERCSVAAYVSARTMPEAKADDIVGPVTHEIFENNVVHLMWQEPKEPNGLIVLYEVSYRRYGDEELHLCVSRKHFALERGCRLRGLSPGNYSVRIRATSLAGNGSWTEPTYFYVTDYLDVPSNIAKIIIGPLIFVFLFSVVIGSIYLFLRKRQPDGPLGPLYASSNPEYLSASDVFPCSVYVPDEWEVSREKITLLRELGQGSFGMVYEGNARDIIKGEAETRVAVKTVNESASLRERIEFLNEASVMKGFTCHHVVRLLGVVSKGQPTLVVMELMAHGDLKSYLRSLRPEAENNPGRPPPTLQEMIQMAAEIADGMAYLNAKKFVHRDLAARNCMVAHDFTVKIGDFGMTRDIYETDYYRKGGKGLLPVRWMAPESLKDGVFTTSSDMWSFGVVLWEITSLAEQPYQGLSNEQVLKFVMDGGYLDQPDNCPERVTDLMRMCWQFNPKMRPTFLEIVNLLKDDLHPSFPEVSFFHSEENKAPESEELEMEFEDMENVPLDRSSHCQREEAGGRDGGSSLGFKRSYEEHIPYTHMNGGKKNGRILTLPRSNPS
Experimental: (§2) Kinase selectivity assays with InsR (dose-response measurements) and Met, Syk and BTK kinases (single point compound concentrations) using the ADP-Glo readout system were run under optimized experimental conditions similar to the IGF1R assay with regard to the kinetic parameters of kinase reactions.
Dose-response and IC50 measurements for the confirmed screening hits were conducted for IGF1R and InsR kinases. The conditions were similar to the HTS conditions described above, except that the compounds were plated in 8-point curves serially diluted 1:2 from 100 μM top concentrations and with a 1% final DMSO throughout, in quadruplicates for each compound dilution point. The time of incubation of kinase reaction mixtures was 2.5 or 4.5 hours at 27°C in different experiments both for the insulin kinase receptor and IGF1R, the dithiotreitol (DTT ) concentration was 500 μM, and the amount of recombinant insulin receptor kinase was 2 ng per well. DTT concentration was elevated to enhance the stability of the enzymes during 4.5 h incubation experiments. Compounds were typically serially 2-fold diluted in pure DMSO starting from 10 mM down to 19.5 μM to produce the final concentrations ranging from […] in a 1% DMSO-aqueous reaction buffer.

[3] = target: Met kinase (Homo sapiens, UniProt P08581); assay: Met ADP-Glo kinase selectivity assay, single concentration; details: remaining kinase activity at 40 μM compound, 50 μM ATP
Sequence of Met kinase (P08581 25-1390): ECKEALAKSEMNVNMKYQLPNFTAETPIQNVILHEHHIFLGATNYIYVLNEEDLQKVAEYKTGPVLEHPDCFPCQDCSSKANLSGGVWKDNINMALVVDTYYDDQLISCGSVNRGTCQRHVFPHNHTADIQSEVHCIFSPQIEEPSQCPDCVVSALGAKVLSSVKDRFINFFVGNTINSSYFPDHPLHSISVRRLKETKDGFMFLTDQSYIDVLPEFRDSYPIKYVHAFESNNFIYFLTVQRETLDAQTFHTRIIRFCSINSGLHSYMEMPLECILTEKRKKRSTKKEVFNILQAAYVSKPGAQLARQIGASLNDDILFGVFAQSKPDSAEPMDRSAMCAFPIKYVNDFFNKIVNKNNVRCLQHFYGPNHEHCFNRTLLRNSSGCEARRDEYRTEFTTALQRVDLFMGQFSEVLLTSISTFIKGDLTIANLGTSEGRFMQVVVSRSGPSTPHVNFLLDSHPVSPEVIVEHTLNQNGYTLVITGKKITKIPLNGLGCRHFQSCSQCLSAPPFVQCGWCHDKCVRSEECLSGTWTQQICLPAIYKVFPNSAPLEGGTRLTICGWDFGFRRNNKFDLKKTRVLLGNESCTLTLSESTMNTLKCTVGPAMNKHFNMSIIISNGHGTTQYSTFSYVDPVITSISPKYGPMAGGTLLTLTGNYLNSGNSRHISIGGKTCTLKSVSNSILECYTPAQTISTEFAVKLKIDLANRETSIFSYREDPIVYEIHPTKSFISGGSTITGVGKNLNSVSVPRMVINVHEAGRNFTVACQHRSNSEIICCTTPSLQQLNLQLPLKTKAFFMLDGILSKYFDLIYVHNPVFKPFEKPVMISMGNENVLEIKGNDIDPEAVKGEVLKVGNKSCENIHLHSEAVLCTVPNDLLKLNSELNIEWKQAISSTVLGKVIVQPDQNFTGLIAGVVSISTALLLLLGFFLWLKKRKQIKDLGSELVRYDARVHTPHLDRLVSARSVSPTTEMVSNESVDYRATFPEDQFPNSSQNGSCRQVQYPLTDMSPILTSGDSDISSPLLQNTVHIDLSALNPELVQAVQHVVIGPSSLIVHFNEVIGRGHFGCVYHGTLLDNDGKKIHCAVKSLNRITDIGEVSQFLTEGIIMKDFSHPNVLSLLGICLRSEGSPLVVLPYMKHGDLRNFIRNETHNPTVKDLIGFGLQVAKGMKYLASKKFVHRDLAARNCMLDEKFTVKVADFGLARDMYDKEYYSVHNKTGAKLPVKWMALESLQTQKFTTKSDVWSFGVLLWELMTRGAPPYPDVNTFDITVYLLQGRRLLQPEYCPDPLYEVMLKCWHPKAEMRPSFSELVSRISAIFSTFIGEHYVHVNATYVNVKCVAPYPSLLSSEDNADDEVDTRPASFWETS
Experimental: as §2
(§3) The amounts of the Met, Syk, and BTK enzymes and the incubation time were optimized to ensure an ATP conversion not higher than 20% in all cases. The typical assay window (signal/background) was 3–5 for all kinases. The final volumes of the Met, Syk, and BTK kinase assay reaction mixtures were 5 μL. Two μL of the enzyme solution in a 1× reaction buffer (6 ng Met, 8 ng BTK, 4 ng Syk), 1 μL of the compound solution in a 2× reaction buffer, the ATP and substrate mixture in a 0.5× reaction mixture were added sequentially. The composition of the 1× reaction buffer was 40 mM Tris, 20 mM magnesium chloride, 0.1 mg/ml bovine serum albumin, 500 μM DTT at pH 7.5 with 1% final concentration of the DMSO, 50 μM ATP, and 0.2 mg/ml Poly(Glu4, Tyr1) substrates. The buffer was supplemented with 2 mM manganese (II) chloride in the case of BTK kinase. Compounds were tested at 40 μM concentrations. In each experiment, 6 wells with the enzyme, but no added compounds, were used as negative inhibition controls; 6 wells without tested compounds and the enzyme and 6 wells with the enzyme and 0.5–1 μM staurosporine were used as positive inhibition controls. Pre-incubation of the reaction mixture with compounds prior to ATP addition was performed for 20 min at 25°C in all experiments. The incubation of the reaction mixture lasted for 25 min at 37°C. All compounds were tested in 4 to 6 repeats. Conditions of ADP detection were as follows: 40 min incubation with an ADP-Glo reagent, followed by 30 min with a detection reagent at 25°C. Luminescence was read using a BMG Polarstar Omega reader at a gain setting of 4095 and measurement time of 0.5 s.

[4] = target: Syk kinase (Homo sapiens, UniProt P43405); assay: Syk ADP-Glo kinase selectivity assay, single concentration; details: remaining kinase activity at 40 μM compound, 50 μM ATP
Experimental: as §2, §3

[5] = target: BTK kinase (Homo sapiens, UniProt Q06187); assay: BTK ADP-Glo kinase selectivity assay, single concentration; details: remaining kinase activity at 40 μM compound, 50 μM ATP
Sequence of BTK kinase (Q06187 whole entry): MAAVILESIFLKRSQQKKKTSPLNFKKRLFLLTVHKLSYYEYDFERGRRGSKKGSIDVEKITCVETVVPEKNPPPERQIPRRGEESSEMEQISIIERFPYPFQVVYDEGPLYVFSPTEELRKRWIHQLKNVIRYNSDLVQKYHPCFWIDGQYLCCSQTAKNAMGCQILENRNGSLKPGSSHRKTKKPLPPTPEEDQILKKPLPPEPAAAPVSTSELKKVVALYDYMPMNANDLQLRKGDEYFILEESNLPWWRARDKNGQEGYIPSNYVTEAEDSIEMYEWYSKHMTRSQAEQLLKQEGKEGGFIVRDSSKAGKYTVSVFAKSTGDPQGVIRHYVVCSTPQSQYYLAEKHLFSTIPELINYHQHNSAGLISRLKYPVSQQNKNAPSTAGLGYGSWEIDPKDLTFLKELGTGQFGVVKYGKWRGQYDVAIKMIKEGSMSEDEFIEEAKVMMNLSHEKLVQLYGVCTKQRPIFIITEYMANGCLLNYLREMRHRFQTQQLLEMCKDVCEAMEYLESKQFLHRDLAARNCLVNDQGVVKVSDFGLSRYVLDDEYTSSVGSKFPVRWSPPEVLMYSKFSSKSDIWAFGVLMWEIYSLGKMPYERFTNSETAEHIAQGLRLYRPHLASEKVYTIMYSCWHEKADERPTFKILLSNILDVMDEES
Experimental: as §2, §3

[6] = target: T1, IGF1R kinase; assay: Michaelis-Menten kinetics / Lineweaver-Burk competition analysis; details: Lineweaver-Burk plot; for inhibition mechanism with regard to ATP: IGF1Rtide 143 μg/ml, ATP titrated; for inhibition mechanism with regard to the substrate: poly(Glu4,Tyr1) titrated, ATP 250 μM
Experimental: as §1
Serial dilutions of ATP and substrate polypeptide poly(Glu4,Tyr1) were tested in IGF1R kinase assays with the inhibitors L1 and T4 to produce the kinetic data for Lineweaver-Burk plots. […]

T1 sequence (P08069 999-1274 limits assumed): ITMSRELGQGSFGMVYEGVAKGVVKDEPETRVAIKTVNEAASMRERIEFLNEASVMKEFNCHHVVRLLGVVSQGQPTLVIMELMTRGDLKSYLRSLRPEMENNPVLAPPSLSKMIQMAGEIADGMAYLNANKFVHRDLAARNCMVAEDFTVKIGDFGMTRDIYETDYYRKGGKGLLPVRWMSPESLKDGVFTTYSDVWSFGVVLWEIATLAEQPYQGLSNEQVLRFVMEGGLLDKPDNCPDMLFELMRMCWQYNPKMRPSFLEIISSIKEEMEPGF

Row | SMILES | IC50 [1] | IC50 [2] | stronger inhibition of InsR versus IGF1R [2] | Activity Met, % [3] | Activity Syk, % [4] | Activity Btk, % [5] | inhibition mechanism with regard to ATP [6] | inhibition mechanism with regard to the substrate [6] | selectivity for IGF1R versus InsR [1]
1 | CCOc1ccc(NS(=O)(=O)c2ccc3[nH]c(=O)cc(C(=O)Nc4ccn(C)n4)c3c2)cc1 [Compound T3] | ~100 µM | 10 µM | 5-10 fold | 98% | 115% | 81% | – | – | –
2 | COc1cc(CNC(=O)c2ccc[nH]c2=S)ccc1OCc1ccncc1 [Compound T2] | 18 µM | 30 µM | – | 62% | 72% | 83% | – | – | –
3 | O=C(NCc1ccc(Cn2ccnc2)cc1)c1ccc[nH]c1=S [Compound T4] | 7 µM | 10 µM | – | 75% | 115% | 82% | non-competitive inhibition | non-competitive inhibition | –
4 | O=C(Nc1ccc2c(c1)OCCO2)c1ccc2c(c1)OCCO2 [Compound L1] | 18 µM | 22 µM | – | 102% | 109% | 98% | non-competitive inhibition | non-competitive inhibition | essentially nonselective
5 | O=C(Nc1ccc2nccnc2c1)c1ccc2c(c1)OCCO2 [Compound L4] | 25 µM | 30 µM | – | 60% | 53% | 113% | – | – | essentially nonselective
6 | O=C(Nc1ccc2c(c1)OCO2)c1ccc2c(c1)OCCO2 [Compound L2] | 25 µM | 100 µM | – | 63% | 48% | 106% | – | – | –
7 | COc1ccc(NC(=O)c2ccc3c(c2)OCCO3)cc1 [Compound L3] | 26 µM | 29 µM | – | 77% | 88% | 106% | – | – | essentially nonselective
8 | NS(=O)(=O)c1ccc(NNC(=O)c2ccc(NS(=O)(=O)c3cccs3)cc2)c([N+](=O)[O-])c1 [Compound T1] | ~100 µM | 20 µM | 5-10 fold | 78% | 84% | 92% | – | – | –

Reference: article PMC3695357, “Identification of Novel IGF1R Kinase Inhibitors by Molecular Modeling and High-Throughput Screening” (Acta Naturae, 2013)
